According to patent publication US10076527B2, “Standardized extract and its use in the manufacture of a medicament” (priority 2006, dated 2018):

Key:
conscious cats = conditions: intravenous injection; cited from earlier work
conscious dogs = conditions: intravenous injection; cited from earlier work
anesthetized dogs = conditions: intravenous injection; cited from earlier work
[1] = tested on: isolated guinea pig ileum; conditions: concentration of 54 mg/ml; cited from earlier work
normal mice = assay: Excretion promotion study in normal mice (India ink); format: in vivo, ICR mice; conditions: positive control, hypodermic injection 0.1 ml/10 g, p<0.01
Protocol: In this experiment, 50 male ICR mice weighing 23-27 g respectively were divided randomly into 5 groups with 10 per group, i.e. normal control, positive control and three dose groups at 2.48 mg/kg, 4.96 mg/kg and 9.92 mg/kg, respectively. They were fasted for 24 hours before the experiment.
The mice in the positive control group were given an injection of 0.1 ml/10 g body weight of Neostigmine hypodermically while the mice in the normal control groups were given rectal administrations of saline of 0.02 ml/10 g body weight. The mice in the three dose groups were given rectal administrations of the Muskmelon-Base extract (diluted with saline to give desired doses and given 0.02 ml/10 g body weight).
After medication, all the mice were intra-gastrically given infusions of India ink (10% ink, diluted with saline, at the dose 0.02 ml/10 g of body weight). The mice were individually put into a cage with white filter paper flooring. The time of excretion and quantity of the feces were recorded during 4-hour observation periods.

[2] = tested on: mice with gastrointestinal hypo-function induced by atropine; assay: Intestine enterokinesia in mice with gastrointestinal hypo-function induced by atropine; format: in vivo, ICR mice; conditions: extract high dose rectal; Neostigmine 0.15 mg/kg hypodermic
Protocol: In this experiment, 66 male ICR mice weighing 22-26 g respectively were divided randomly into 6 groups with 11 per group. They were fasted for 24 hours before the experiment. The 6 groups were named as: • Normal control group, • Model group, • Positive control group, and • The three dose groups.
The mice in the normal control group were only injected saline at 0.1 ml/10 g and mice in all other groups were injected 0.25 mg/kg of Atropine hypodermic at 0.1 ml/10 g body weight.
Twenty minutes after injection Muskmelon-Base extract (diluted with the saline) was given to the mice at the doses of […] by rectal administration and saline solution was given to the mice in normal, control and the model groups. Neostigmine hypodermic injection (0.15 mg/kg) was given to the mice in the positive control group at the dose 0.1 ml/10 g body weight. A further 20 minutes later, an intragastric administration of 10% ink was given to all the mice at the dose 0.2 ml/10 g body weight.
All the mice were killed and laparotomized in 90 minutes. The intestine from the pylorus to the anus was taken out to measure the whole length of the alimentary tract. The distance from the pylorus to the front the ink impelled was measured to calculate the impelling percentage.

Compound	diarrhea (conscious cats)	diarrhea (conscious dogs)	enterokinesia (anesthetized dogs)	effect on isolated guinea pig ileum [1]	quantity of the feces increased vs normal control (normal mice; 4-hour observation) [%]	duration for the first excretion of black feces shortened vs normal control (normal mice) [%]	muscle spasm side effect [2]
CC(C)(O)/C=C/C(=O)[C@](C)(O)[C@H]1[C@H](O)C[C@@]2(C)[C@@H]3CC=C4[C@@H](C[C@H](O)C(=O)C4(C)C)[C@]3(C)C(=O)C[C@]12C [Cucurbitacin D]	induced diarrhea	induced diarrhea	stimulated enterokinesia	did not cause any visible effect			
CN(C)C(=O)Oc1cccc([N+](C)(C)C)c1 [Neostigmine]					49	53	always found in all mice
